This note sets out measurements from US4061645A, “2-Trichloromethyl-5-methylsulfinyl-1,3,4-thiadiazole” (Schering Aktiengesellschaft, priority 1972, dated 1977).

In one test the test system is Stemphylium ilicis. Put plainly: Agar test (Example 7), Stemphylium. Particulars: 10 ppm; 5 days at 22° C; control 100. In kind it is cell-based. The protocol:
(§1) The fungicidal action of the agents according to the invention was tested in artificial nutrient media against plant-pathogenic fungi in Petri dishes (agar test). The procedure was to sterilize the medium consisting of 2% malt extract and 1.5% agar-agar powder. Before the solidification of the medium, the active substances were added to it, mixing thoroughly, so that the medium received 10 parts of active substance per million (ppm). After the solidification of the medium, the latter was inoculated with a platinum dropper which contained 100 spores each of the fungi to be tested, and after five days at 22° C, an evaluation was made by measuring the diameter of the colonies in mm.

Test [1] relates to Rhizoctonia solani. Kind of test: Limit concentration of soil-fungicidal effectiveness, Rhizoctonia solani, infested soil seeded with peas (Example 1). Type of test: in vivo. Particulars: 20 to 23 days, 22°-25° C; for minimal effective concentration: soil, 480 h, read-out: Limit concentration of the fungicidal effectiveness. The protocol: (§2) Limit concentrations of the soil-fungicidal effectiveness at homogeneous mixture of the products with the infested soil. Basic condition in the evaluation are a sound root formation without fungus necroses and germination of the seed of at least 90% compared with the result obtained in steamed soil. Per concentration there were seeded 25 grains of peas of the variety "Miracle of Kelvedon" (marrow pea) without a waiting period. The cultivation time in the tests was 20 to 23 days at a temperature of 22°-25° C. Four commercial products were included in the test series.
Rhizoctania solani: -- Steamed compost soil was inoculated with mycelium of Rhizoctonia solani.

The test system of test [2] is Colletotrichum gloeosporioides. Kind of test: Agar test (Example 7), Colletotrichum. Type of test: cell-based. Particulars: 10 ppm; 5 days at 22° C; control 100. The protocol: as §1
Another test concerns Thielaviopsis basicola. Kind of test: Control of Thielaviopsis basicola on tobacco (Example 10). Type of test: in vivo. The arrangement: key to Attack 0-5: 0: no attack; 1: very slight attack; 2: slight attack; 3: medium attack; 4: strong attack; 5: very strong attack. Particulars: five weeks. The protocol:
Control of Thielaviopsis basicola on tobacco.
A 10% powder preparation of 2-trifluoromethyl-5-methylsulfonyl-1,3,4-thiadiazole was homogeneously admixed to a soil heavily infested by Thielaviopsis basicola. After a reaction time of one week, tobacco seedlings of the variety Nicotiana tabacum var. "White Burley" were set out and cultivated for five weeks in the greenhouse at 22°-32° C. The attack and weight of the fresh plant are evident from the table.

The test system of test [3] is Pythium ultimum. Put plainly: Pythium ultimum infested compost soil, marrow peas (Example 2). In kind it is in vivo. Conditions: for Weight of fresh plant: 3 weeks; for Number of sound peas after 3 wks.: of 25 grains. The source says: Steamed compost soil was inoculated with mycelium of Pythium ultimum.
In a further test the test system is Helminthosporium sativum. Put plainly: Agar test (Example 7), Helminthosporium. Type of test: cell-based. Particulars: 10 ppm; 5 days at 22° C; control 100. The protocol: as §1
The test system of the next test is Asperqilus niger. Kind of test: Agar test (Example 7), Aspergillus. Type of test: cell-based. Particulars: 10 ppm; 5 days at 22° C; control 100. The protocol: as §1
The subject of the next test is Botrytis cinerea. Kind of test: Agar test (Example 7), Botrytis. In kind it is cell-based. Conditions: 10 ppm; 5 days at 22° C; control 100. The protocol:
as §1

The test system of the next test is Meloidogyne incognita. Kind of test: Nematocidal action, infested compost soil, cucumber seeds (Example 8). Conditions: 30 days. In kind it is in vivo. The protocol:
The products as 20% powder preparations were homogeneously admixed with a compost soil heavily infested by root gal nematodes. Without a waiting period, 20 cucumber seeds per concentration were seeded. After a cultivation time of 30 days at a temperature of 23°-25° C, the nematocidal action was evaluated by counting the root galls formed in the waterbath. The following table states the reduction of attack in percent. In the control, an average of 90 root galls per seedling had formed.

Test [4] concerns Rhizoctonia solani. Put plainly: Rhizoctonia solani infested compost soil, marrow peas (Example 3). Type of test: in vivo. Conditions: for Weight of fresh plant: 3 weeks; for Number of sound peas after 3 wks.: of 25 grains. The source says:
Steamed compost soil was inoculated with mycelium of Rhizoctonia solani. After homogeneous mixture of the products with the infested soil, the products were present in the form of 20% powder preparations, the seeding of 25 grains of marrow peas of the variety "Miracle of Kelvedon" per concentration was effected without waiting period in clay dishes holding 1 liter of soil. The table lists the number of germinated sound peas, the weight of the fresh plant, and a root evaluation after a cultivation period of three weeks at 22°-25° C.

In test [5] the test system is Fusarium oxysporum f. callistephi. Put plainly: Fusarium infested compost soil, Callistephus chinesis seedlings (Example 5). Type of test: in vivo. Particulars: of 4 seedlings. The source says: Steamed compost soil was inoculated with a spore suspension of Fusarium oxysporum f. callistephi. After homogeneous mixture of the products with the infested soil, the products were present as 20% powder preparations, and after a waiting period of 8 days, there were set out per concentration 4 seedlings of Callistephus chinesis, master aster "Sun Ray" as host plants.

The next test concerns Damping-off Fungi. Put plainly: Cotton seed disinfection, normal compost soil (Example 6). Particulars: 100 mg active ingr. per kg of seed; 10% formulation; 15 days. Type of test: in vivo. The protocol: Cotton seeds disinfected with 10% formulations were seeded in normal compost soil (Damping-off Fungi), 25 grains per concentration. After a cultivation time of 15 days at 22°-25° C, the number of germinated sound cotton seedlings and their weight as fresh plants were determined.

Test [6] relates to Pythium ultimum. Put plainly: Limit concentration of soil-fungicidal effectiveness, Pythium ultimum, infested soil seeded with peas (Example 1). Type of test: in vivo. Conditions: 20 to 23 days, 22°-25° C. The protocol: as §2
Pythium ultimum: -- Steamed compost soil was inoculated with mycelium of Pythium ultimum

The mark [7] stands for this setting: 20 mg active ingr. per liter of soil.
The mark [8] stands for this setting: 30 mg active ingr. per liter of soil.
Where [9] appears, read: 40 mg active ingr. per liter of soil.
The mark [10] stands for this setting: 10 mg active ingr. per liter of soil.
The mark [11] stands for this setting: 50 mg active ingredient per liter of soil.
Where [12] appears, read: 100 mg active ingredient per liter of soil.

For the compound `CS(=O)(=O)c1nnc(C(F)(F)F)s1` [Compound 1, 2-trifluoromethyl-5-methylsulfonyl-1,3,4-thiadiazole], the “diameter of the colonies” value (with Stemphylium ilicis; in test [2]; in the test with Helminthosporium sativum; with Asperqilus niger; in the test with Botrytis cinerea) was 0 mm each time. Further, the minimal effective concentration with Rhizoctonia solani [1] came out at 25 µg/mL. Also, the “Attack 0-5” value with Thielaviopsis basicola (setting [7]) turned out to be 0.5; in the test with Thielaviopsis basicola (setting [8]), 0; in the test with Thielaviopsis basicola (setting [9]), 0. In addition, the results for the “Weight of fresh plant (leaves and stems)” value in the test on Thielaviopsis basicola (setting [7]), in the test on Thielaviopsis basicola (setting [8]) and in the test on Thielaviopsis basicola (setting [9]) were 115 g, 118 g and 104 g, respectively. The results for the “Weight of roots (air-dry)” value in the test with Thielaviopsis basicola (setting [7]), with Thielaviopsis basicola (setting [8]) and in the test on Thielaviopsis basicola (setting [9]) were 11 g, 11 g and 9 g, respectively. Moreover, the “Weight of fresh plant” value in the test with Pythium ultimum [3] (setting [10]) was found to be 20 g; in the test on Pythium ultimum [3] (setting [7]) it was 19 g; in the test with Pythium ultimum [3] (setting [8]), 19 g. In addition, the “Number of sound peas after 3 wks.” value in the test on Pythium ultimum [3] (setting [10]) stood at 25; in the test with Pythium ultimum [3] (setting [7]), 22; with Pythium ultimum [3] (setting [8]) it was 23.
Regarding `C[S+]([O-])c1nnc(C(Cl)Cl)s1` (centres unmarked) [Compound 3, 2-dichloromethyl-5-methylsulfinyl-1,3,4-thiadiazole], the “diameter of the colonies” value was 0 mm with Stemphylium ilicis; 0 mm in test [2]; 0 mm in the test with Helminthosporium sativum; 50 mm in the test on Asperqilus niger; 36 mm with Botrytis cinerea. For the same compound, the “Nematocidal action in % (reduction of attack)” value in the test with Meloidogyne incognita (40 mg per liter of soil) and in the test on Meloidogyne incognita (60 mg per liter of soil) was 100% throughout. In the test with Rhizoctonia solani [1], the minimal effective concentration turned out to be 30 µg/mL. Further, the “Weight of fresh plant” value in the test with Rhizoctonia solani [4] (setting [10]) was 0 g; with Rhizoctonia solani [4] (setting [7]), 2 g; in the test on Rhizoctonia solani [4] (setting [8]), 21 g; in the test with Pythium ultimum [3] (setting [10]), 22 g; in the test on Pythium ultimum [3] (setting [7]), 24 g; with Pythium ultimum [3] (setting [8]) it was 22 g. Also, in the test with Damping-off Fungi, the “Weight of fresh plant” value came out at 29 g. The “Number of sound peas after 3 wks.” value was found to be 0 with Rhizoctonia solani [4] (setting [10]); 2 with Rhizoctonia solani [4] (setting [7]); 22 with Rhizoctonia solani [4] (setting [8]); 24 in the test with Pythium ultimum [3] (setting [10]); 24 in the test on Pythium ultimum [3] (setting [7]); 25 with Pythium ultimum [3] (setting [8]). In addition, the “Number of attacked plants after 3 weeks” value in test [5] (setting [11]) and in test [5] (setting [12]) was 0 in each case. In the test with Damping-off Fungi, the “Sound plants in %” value is listed as 100%.
In the case of `C[S+]([O-])c1nnc(C(Cl)(Cl)Cl)s1` (centres unmarked) [Compound 8, 2-trichloromethyl-5-methylsulfinyl-1,3,4-thiadiazole], the “diameter of the colonies” value (in the test with Stemphylium ilicis; in [2]; in the test on Helminthosporium sativum; in the test on Asperqilus niger; with Botrytis cinerea) was 0 mm each time. For the same compound, in the test with Rhizoctonia solani [1], the minimal effective concentration turned out to be 10 µg/mL. In addition, the “Weight of fresh plant” value in the test with Rhizoctonia solani [4] (setting [10]) amounted to 17 g; in the test with Rhizoctonia solani [4] (setting [7]), 17 g; in the test on Rhizoctonia solani [4] (setting [8]), 17 g; with Pythium ultimum [3] (setting [10]), 12 g; in the test on Pythium ultimum [3] (setting [7]), 22 g; in the test with Pythium ultimum [3] (setting [8]) it was 22 g. Moreover, in the test with Damping-off Fungi, the “Weight of fresh plant” value turned out to be 29 g. The “Number of sound peas after 3 wks.” value with Rhizoctonia solani [4] (setting [10]) is listed as 21; in the test with Rhizoctonia solani [4] (setting [7]) it was 24; in the test with Rhizoctonia solani [4] (setting [8]), 24; in the test on Pythium ultimum [3] (setting [10]) it was 19; in the test on Pythium ultimum [3] (setting [7]), 24; in the test with Pythium ultimum [3] (setting [8]), 25. The “Number of attacked plants after 3 weeks” value in test [5] (setting [11]) and in test [5] (setting [12]) was 0 throughout. Besides, the “Sound plants in %” value in the test with Damping-off Fungi is 96%.
`CCCS(=O)(=O)c1nnc(C(Cl)Cl)s1` [Compound 19, 2-dichloromethyl-5-propylsulfonyl-1,3,4-thiadiazole]: the “diameter of the colonies” value (in the test on Stemphylium ilicis; in test [2]; in the test with Helminthosporium sativum; in the test with Asperqilus niger; in the test on Botrytis cinerea) was 0 mm throughout. The “Nematocidal action in % (reduction of attack)” value in the test on Meloidogyne incognita (40 mg per liter of soil) turned out to be 72%; in the test with Meloidogyne incognita (60 mg per liter of soil), 82%. Besides, in the test with Rhizoctonia solani [1], the minimal effective concentration was found to be 50 µg/mL. Further, the “Number of attacked plants after 3 weeks” value in test [5] (setting [11]) and in test [5] (setting [12]) was 0 throughout.
As to `CS(=O)(=O)c1nnc(C(Cl)(Cl)Cl)s1` [Compound 21, 2-trichloromethyl-5-methylsulfonyl-1,3,4-thiadiazole], the “diameter of the colonies” value (with Stemphylium ilicis; in [2]; in the test with Helminthosporium sativum; in the test on Asperqilus niger; in the test on Botrytis cinerea) was 0 mm throughout. Moreover, the minimal effective concentration with Rhizoctonia solani [1] stood at 10 µg/mL. For the same compound, the “Weight of fresh plant” value with Rhizoctonia solani [4] (setting [10]) turned out to be 11 g; in the test on Rhizoctonia solani [4] (setting [7]), 17 g; with Rhizoctonia solani [4] (setting [8]) it was 17 g; in the test with Damping-off Fungi it was 33 g. The “Number of sound peas after 3 wks.” value in the test with Rhizoctonia solani [4] (setting [10]) is listed as 17; in the test with Rhizoctonia solani [4] (setting [7]) it was 24; with Rhizoctonia solani [4] (setting [8]) it was 24. Also, the “Number of attacked plants after 3 weeks” value in test [5] (setting [11]) and in [5] (setting [12]) was 0 each time. Besides, in the test with Damping-off Fungi, the “Sound plants in %” value is on record as 100%.
As for `CCCCC(Br)c1nnc(S(C)(=O)=O)s1` (centres unmarked) [Compound 52, 2-(1-bromopentyl)-5-methylsulfonyl-1,3,4-thiadiazole], the minimal effective concentration with Rhizoctonia solani [1] is 100 µg/mL. Also, the “Limit concentration of the fungicidal effectiveness” value (from here on “Limit concentration”) with Pythium ultimum [6] is “no effect”.
For the compound `CC(C)CC(Br)c1nnc(S(C)(=O)=O)s1` (centres unmarked) [Compound 53, 2-(1-bromoisopentyl)-5-methylsulfonyl-1,3,4-thiadiazole], the minimal effective concentration in the test on Rhizoctonia solani [1] turned out to be 100 µg/mL. Further, the “Limit concentration” value with Pythium ultimum [6] is recorded as “no effect”.
For the compound `CS(=O)(=O)c1nnc(C(F)(F)Cl)s1` [Compound 54], the “Limit concentration” value is listed as 20 mg of active substance per lit with Rhizoctonia solani [1] and 10 mg of active substance per lit in the test on Pythium ultimum [6].
Regarding `C[S+]([O-])c1nnc(C(F)(F)Cl)s1` (centres unmarked) [Compound 55], the “Limit concentration” value in the test with Rhizoctonia solani [1] and in the test with Pythium ultimum [6] was 10 mg of active substance per lit throughout.
